test system: ISR pathway (ATF4 translation); experiment: ATF4 Nano Luciferase reporter integrated stress response (ISR) assay in H4 ATF4-NLuc cells; details: Homo sapiens, H4 ATF4-NLuc (clone 17) cells; compound 30 minutes, then 50 um sodium arsenite for 6 hours; luminescence readout

Q: With `O=C(CO[C@H]1C[C@@H](OC(F)(F)F)C1)NC12CC(n3cnc(-c4ccc(F)cc4)c3)(C1)C2` [Example 136] as the molecule, how does the IC50 read?
A: 0.022 µM

Q: How did the IC50 turn out when `O=C(CO[C@H]1C[C@@H](OC(F)(F)F)C1)NC12CC(n3cnc(-c4ccc(C(F)(F)F)cc4F)c3)(C1)C2` [Example 148] was run?
A: 0.0026 µM

Q: Which IC50 does the source give for `O=C(COc1ccc(C(F)(F)F)nc1)NC12CC(n3cnc(C4CC(OC(F)(F)F)C4)c3)(C1)C2` (stereo not shown) [Example 151] here?
A: 0.0355 µM

Q: For `O=C(COCCOC(F)(F)F)NC12CC(n3cnc(-c4ccc(Cl)c(F)c4)c3)(C1)C2` [Example 152], which IC50 is on record?
A: 0.0382 µM

same assay, conditions: Homo sapiens, read-out: Activity (IC50), H4 ATF4-NLuc (clone 17) cells; compound 30 minutes, then 50 um sodium arsenite for 6 hours; luminescence readout

Q: Which IC50 does the source give for `CC1C(c2nnc(C34CC(NC(=O)COc5ccc(Cl)c(F)c5)(C3)C4)o2)CN1CC(F)(F)F` (stereo not shown) [Example 121, 2-(4-chloro-3-fluoro-phenoxy)-N-[3-[5-[2-methyl-1-(2,2,2-trifluoroethyl)azetidin-3-yl]-1,3,4-oxadiazol-2-yl]-1-bicyclo[1.1.1]pentanyl]acetamide] here?
A: < 1 µM

Q: With `CC1C(c2nnc(C34CC(NC(=O)COc5ccc(Cl)c(F)c5)(C3)C4)o2)CN1C(=O)OC(C)(C)C` (stereo not shown) [Example 122, tert-butyl 3-[5-[3-[[2-(4-chloro-3-fluoro-phenoxy)acetyl]amino]-1-bicyclo[1.1.1]pentanyl]-1,3,4-oxadiazol-2-yl]-2-methyl-azetidine-1-carboxylate] as the molecule, how does the IC50 read?
A: < 1 µM

Q: For `CC(N1CC(c2nnc(C34CC(NC(=O)COc5ccc(Cl)c(F)c5)(C3)C4)o2)C1)C(F)(F)F` (stereo not shown) [Example 123, 2-(4-chloro-3-fluoro-phenoxy)-N-[3-[5-[1-(2,2,2-trifluoro-1-methyl-ethyl)azetidin-3-yl]-1,3,4-oxadiazol-2-yl]-1-bicyclo[1.1.1]pentanyl]acetamide], which IC50 is on record?
A: < 1 µM

Q: Which IC50 does the source give for `O=C(COc1ccc(Cl)c(F)c1)NC12CC(c3nnc([C@@H]4CC[C@H](COC(F)(F)F)O4)o3)(C1)C2` [Example 124, 2-(4-chloro-3-fluoro-phenoxy)-N-[3-[5-[5-cis-(trifluoromethoxymethyl)tetrahydrofuran-2-yl]-1,3,4-oxadiazol-2-yl]-1-bicyclo[1.1.1]pentanyl]acetamide] here?
A: < 1 µM

Q: `O=C(COc1ccc(Cl)c(F)c1)NC12CC(c3nnc(CN4CCC(F)(F)C4)o3)(C1)C2` [Example 125, 2-(4-chloro-3-fluoro-phenoxy)-N-[3-[5-[(3,3-difluoropyrrolidin-1-yl)methyl]-1,3,4-oxadiazol-2-yl]-1-bicyclo[1.1.1]pentanyl]acetamide] was tested. Which IC50 did it give?
A: < 1 µM

Q: How did the IC50 turn out when `O=C(COc1ccc(Cl)c(F)c1)NC12CC(c3nnc(CN4CC(C(F)(F)F)C4)o3)(C1)C2` [Example 126, 2-(4-chloro-3-fluoro-phenoxy)-N-[3-[5-[[3-(trifluoromethyl)azetidin-1-yl]methyl]-1,3,4-oxadiazol-2-yl]-1-bicyclo[1.1.1]pentanyl]acetamide] was run?
A: < 1 µM

Q: How did the IC50 turn out when `O=C(COc1ccc(Cl)c(F)c1)NC12CC(c3nnc(C4CN(CC(F)(F)F)CCO4)o3)(C1)C2` (stereo not shown) [Example 127, 2-(4-chloro-3-fluoro-phenoxy)-N-[3-[5-[4-(2,2,2-trifluoroethyl)morpholin-2-yl]-1,3,4-oxadiazol-2-yl]-1-bicyclo[1.1.1]pentanyl]acetamide] was run?
A: < 1 µM

Q: How did the IC50 turn out when `CC(C)(C)OC(=O)N1CCOC(c2nnc(C34CC(NC(=O)COc5ccc(Cl)c(F)c5)(C3)C4)o2)C1` (stereo not shown) [Example 128, tert-butyl 2-[5-[3-[[2-(4-chloro-3-fluoro-phenoxy)acetyl]amino]-1-bicyclo[1.1.1]pentanyl]-1,3,4-oxadiazol-2-yl]morpholine-4-carboxylate] was run?
A: 1 to 10 µM

Q: `O=C(COc1ccc(Cl)c(F)c1)NC12CC(c3nnc(CN4CC(F)(F)C4)o3)(C1)C2` [Example 129, 2-(4-chloro-3-fluoro-phenoxy)-N-[3-[5-[(3,3-difluoroazetidin-1-yl)methyl]-1,3,4-oxadiazol-2-yl]-1-bicyclo[1.1.1]pentanyl]acetamide] was tested. Which IC50 did it give?
A: 1 to 10 µM

Q: How did the IC50 turn out when `O=C(COc1ccc(Cl)c(F)c1)NC12CC(c3nnc(C4CN(CC(F)F)C4)o3)(C1)C2` [Example 130, 2-(4-chloro-3-fluoro-phenoxy)-N-[3-[5-[1-(2,2-difluoroethyl)azetidin-3-yl]-1,3,4-oxadiazol-2-yl]-1-bicyclo[1.1.1]pentanyl]acetamide] was run?
A: < 1 µM

Q: For `CC(C)(c1nnc(C23CC(NC(=O)COc4ccc(Cl)c(F)c4)(C2)C3)o1)C(F)F` [Example 131, 2-(4-chloro-3-fluoro-phenoxy)-N-[3-[5-(2,2-difluoro-1,1-dimethyl-ethyl)-1,3,4-oxadiazol-2-yl]-1-bicyclo[1.1.1]pentanyl]acetamide], which IC50 is on record?
A: > 10 µM

Q: How did the IC50 turn out when `CN(CCO[C@H]1C[C@@H](OC(F)(F)F)C1)C12CC(NC(=O)COc3ccc(Cl)c(F)c3)(C1)C2` [Example 132, 2-(4-chloro-3-fluoro-phenoxy)-N-[3-[methyl-[2-[3-cis-(trifluoromethoxy)cyclobutoxy]ethyl]amino]-1-bicyclo[1.1.1]pentanyl]acetamide] was run?
A: < 1 µM

Q: For `O=C(CO[C@H]1C[C@@H](OC(F)(F)F)C1)NC12CC(n3cnc(-c4cccc(C(F)(F)F)c4)c3)(C1)C2` [Example 134], which IC50 is on record?
A: < 1 µM

Q: With `O=C(CO[C@H]1C[C@@H](OC(F)(F)F)C1)NC12CC(n3cnc(-c4ccc(F)cc4F)c3)(C1)C2` [Example 135] as the molecule, how does the IC50 read?
A: < 1 µM

Q: Which IC50 does the source give for `O=C(CO[C@H]1C[C@@H](OC(F)(F)F)C1)NC12CC(n3cnc(-c4ccc(F)cc4)c3)(C1)C2` [Example 136] here?
A: < 1 µM

Q: With `O=C(CO[C@H]1C[C@@H](OC(F)(F)F)C1)NC12CC(n3cnc(-c4cccc(F)c4)c3)(C1)C2` [Example 137] as the molecule, how does the IC50 read?
A: < 1 µM

Q: For `O=C(CO[C@H]1C[C@@H](OC(F)(F)F)C1)NC12CC(n3cnc(-c4ccc(F)c(F)c4)c3)(C1)C2` [Example 138], which IC50 is on record?
A: < 1 µM

Q: For `Cc1ccc(-c2cn(C34CC(NC(=O)CO[C@H]5C[C@@H](OC(F)(F)F)C5)(C3)C4)cn2)cc1F` [Example 140], which IC50 is on record?
A: < 1 µM

Q: Which IC50 does the source give for `O=C(CO[C@H]1C[C@H](OC(F)(F)F)C1)NC12CC(n3cnc(-c4ccc(Cl)cc4)c3)(C1)C2` [Example 141] here?
A: < 1 µM

Q: Which IC50 does the source give for `Cc1cc(F)ccc1-c1cn(C23CC(NC(=O)CO[C@H]4C[C@@H](OC(F)(F)F)C4)(C2)C3)cn1` [Example 142] here?
A: < 1 µM

Q: Which IC50 does the source give for `O=C(COc1ccc(F)c(F)c1)NC12CC(n3cnc([C@H]4C[C@@H](OC(F)(F)F)C4)c3)(C1)C2` [Example 143] here?
A: < 1 µM

Q: Which IC50 does the source give for `O=C(COc1ccc(F)c(F)c1)NC12CC(n3cnc([C@H]4C[C@H](OC(F)(F)F)C4)c3)(C1)C2` [Example 144] here?
A: < 1 µM

Q: How did the IC50 turn out when `O=C(COCCn1cc(F)cn1)NC12CC(n3cnc(-c4ccc(Cl)cc4)c3)(C1)C2` [Example 145] was run?
A: < 1 µM

Q: With `Cc1cc(-c2cn(C34CC(NC(=O)CO[C@H]5C[C@@H](OC(F)(F)F)C5)(C3)C4)cn2)ccc1F` [Example 147] as the molecule, how does the IC50 read?
A: < 1 µM

Q: With `O=C(CO[C@H]1C[C@@H](OC(F)(F)F)C1)NC12CC(n3cnc(-c4ccc(C(F)(F)F)cc4F)c3)(C1)C2` [Example 148] as the molecule, how does the IC50 read?
A: < 1 µM

Q: With `O=C(CO[C@H]1C[C@@H](OC(F)(F)F)C1)NC12CC(n3cnc(-c4ccc(C(F)(F)F)c(F)c4)c3)(C1)C2` [Example 149] as the molecule, how does the IC50 read?
A: < 1 µM

Q: `O=C(CO[C@H]1C[C@@H](OC(F)(F)F)C1)NC12CC(n3cnc(-c4ccc(C(F)(F)F)cc4)c3)(C1)C2` [Example 150] was tested. Which IC50 did it give?
A: < 1 µM

Q: `O=C(COc1ccc(C(F)(F)F)nc1)NC12CC(n3cnc(C4CC(OC(F)(F)F)C4)c3)(C1)C2` (stereo not shown) [Example 151] was tested. Which IC50 did it give?
A: < 1 µM

Q: For `O=C(COCCOC(F)(F)F)NC12CC(n3cnc(-c4ccc(Cl)c(F)c4)c3)(C1)C2` [Example 152], which IC50 is on record?
A: < 1 µM

Q: For `O=C(NC12CC(n3cnc(-c4ccc(Cl)c(F)c4)c3)(C1)C2)[C@H]1C[C@@H](OC(F)(F)F)C1` [Example 153], which IC50 is on record?
A: < 1 µM

Q: For `CC(C)(Oc1ccc(Cl)cc1)C(=O)NC12CC(c3nnc([C@H]4C[C@@H](OC(F)(F)F)C4)o3)(C1)C2` [Example 154], which IC50 is on record?
A: < 1 µM

Q: For `O=C(NC12CC(n3cnc(-c4ccc(Cl)c(F)c4)c3)(C1)C2)C1CCN(CC(F)(F)F)CC1` [Example 155], which IC50 is on record?
A: < 1 µM

Q: For `O=C(COc1cccc(Cl)c1)NC12CC(c3nnc([C@H]4C[C@@H](OC(F)(F)F)C4)o3)(C1)C2` [Example 156], which IC50 is on record?
A: < 1 µM

Source: patent US11851440B2, “Modulators of eukaryotic initiation factor 2B, compositions and methods” (Denali Therapeutics Inc., priority 2017, dated 2023)
